Columns and labels:
Homo sapiens [1] = species on record: Homo sapiens; experiment: Toxicity in patient with solid tumor co-treated with 500 mg/m2 pemetrexed; format: organism-based; settings: in vivo
Homo sapiens [2] = species on record: Homo sapiens; experiment: Toxicity in patient with refractory acute leukemia; format: organism-based; settings: in vivo
[3] = Cmax in BRCA mutation carrying cancer patient with sporadic cancer; settings: human, in vivo
[4] = Terminal half life in BRCA mutation carrying cancer patient with sporadic cancer; settings: human, in vivo
Homo sapiens [5] = experiment: Toxicity in refractory solid tumor and lymphoma patient at 10 mg dosed twice daily on days 1 to 5 in 21-day cycles co-treated with 0.6 mg/m2/day, iv topotecan administered on days 1 to 5; format: organism-based; settings: in vivo
Homo sapiens [6] = experiment: In vivo inhibition of PARP activity in peripheral blood mononuclear cells of refractory solid tumor and lymphoma patient at 10 mg dosed twice daily on days 1 to 5 in 21-day cycles co-treated with 50 mg cyclophosphamide once daily administered on days 1 to 5; format: functional
[7] = Half life in refractory solid tumor and lymphoma patient; settings: human, in vivo
Homo sapiens [8] = experiment: Toxicity in refractory solid tumor and lymphoma patient at 10 mg dosed twice daily on days 1 to 5 in 21-day cycles co-treated with 50 mg cyclophosphamide once daily administered on days 1 to 5; format: organism-based; settings: in vivo
Homo sapiens [9] = experiment: In vivo inhibition of PARP activity in tumor tissue of refractory solid tumor and lymphoma patient at 10 mg dosed twice daily on days 1 to 5 in 21-day cycles co-treated with 50 mg cyclophosphamide once daily administered on days 1 to 5; format: functional
Homo sapiens [10] = experiment: In vivo inhibition of PARP activity in peripheral blood mononuclear cells of advanced solid tumor patient at 12 mg/m2 co-treated with rucaparib and temzolomide; format: functional
[11] = target: Serine/threonine-protein kinase ATR (Homo sapiens, UniProt Q13535); experiment: Inhibition of ATR (unknown origin)
[12] = target: DNA-dependent protein kinase catalytic subunit (Homo sapiens, UniProt P78527); experiment: Inhibition of DNAPK (unknown origin)
Chain of DNA-dependent protein kinase catalytic subunit (P78527 whole entry): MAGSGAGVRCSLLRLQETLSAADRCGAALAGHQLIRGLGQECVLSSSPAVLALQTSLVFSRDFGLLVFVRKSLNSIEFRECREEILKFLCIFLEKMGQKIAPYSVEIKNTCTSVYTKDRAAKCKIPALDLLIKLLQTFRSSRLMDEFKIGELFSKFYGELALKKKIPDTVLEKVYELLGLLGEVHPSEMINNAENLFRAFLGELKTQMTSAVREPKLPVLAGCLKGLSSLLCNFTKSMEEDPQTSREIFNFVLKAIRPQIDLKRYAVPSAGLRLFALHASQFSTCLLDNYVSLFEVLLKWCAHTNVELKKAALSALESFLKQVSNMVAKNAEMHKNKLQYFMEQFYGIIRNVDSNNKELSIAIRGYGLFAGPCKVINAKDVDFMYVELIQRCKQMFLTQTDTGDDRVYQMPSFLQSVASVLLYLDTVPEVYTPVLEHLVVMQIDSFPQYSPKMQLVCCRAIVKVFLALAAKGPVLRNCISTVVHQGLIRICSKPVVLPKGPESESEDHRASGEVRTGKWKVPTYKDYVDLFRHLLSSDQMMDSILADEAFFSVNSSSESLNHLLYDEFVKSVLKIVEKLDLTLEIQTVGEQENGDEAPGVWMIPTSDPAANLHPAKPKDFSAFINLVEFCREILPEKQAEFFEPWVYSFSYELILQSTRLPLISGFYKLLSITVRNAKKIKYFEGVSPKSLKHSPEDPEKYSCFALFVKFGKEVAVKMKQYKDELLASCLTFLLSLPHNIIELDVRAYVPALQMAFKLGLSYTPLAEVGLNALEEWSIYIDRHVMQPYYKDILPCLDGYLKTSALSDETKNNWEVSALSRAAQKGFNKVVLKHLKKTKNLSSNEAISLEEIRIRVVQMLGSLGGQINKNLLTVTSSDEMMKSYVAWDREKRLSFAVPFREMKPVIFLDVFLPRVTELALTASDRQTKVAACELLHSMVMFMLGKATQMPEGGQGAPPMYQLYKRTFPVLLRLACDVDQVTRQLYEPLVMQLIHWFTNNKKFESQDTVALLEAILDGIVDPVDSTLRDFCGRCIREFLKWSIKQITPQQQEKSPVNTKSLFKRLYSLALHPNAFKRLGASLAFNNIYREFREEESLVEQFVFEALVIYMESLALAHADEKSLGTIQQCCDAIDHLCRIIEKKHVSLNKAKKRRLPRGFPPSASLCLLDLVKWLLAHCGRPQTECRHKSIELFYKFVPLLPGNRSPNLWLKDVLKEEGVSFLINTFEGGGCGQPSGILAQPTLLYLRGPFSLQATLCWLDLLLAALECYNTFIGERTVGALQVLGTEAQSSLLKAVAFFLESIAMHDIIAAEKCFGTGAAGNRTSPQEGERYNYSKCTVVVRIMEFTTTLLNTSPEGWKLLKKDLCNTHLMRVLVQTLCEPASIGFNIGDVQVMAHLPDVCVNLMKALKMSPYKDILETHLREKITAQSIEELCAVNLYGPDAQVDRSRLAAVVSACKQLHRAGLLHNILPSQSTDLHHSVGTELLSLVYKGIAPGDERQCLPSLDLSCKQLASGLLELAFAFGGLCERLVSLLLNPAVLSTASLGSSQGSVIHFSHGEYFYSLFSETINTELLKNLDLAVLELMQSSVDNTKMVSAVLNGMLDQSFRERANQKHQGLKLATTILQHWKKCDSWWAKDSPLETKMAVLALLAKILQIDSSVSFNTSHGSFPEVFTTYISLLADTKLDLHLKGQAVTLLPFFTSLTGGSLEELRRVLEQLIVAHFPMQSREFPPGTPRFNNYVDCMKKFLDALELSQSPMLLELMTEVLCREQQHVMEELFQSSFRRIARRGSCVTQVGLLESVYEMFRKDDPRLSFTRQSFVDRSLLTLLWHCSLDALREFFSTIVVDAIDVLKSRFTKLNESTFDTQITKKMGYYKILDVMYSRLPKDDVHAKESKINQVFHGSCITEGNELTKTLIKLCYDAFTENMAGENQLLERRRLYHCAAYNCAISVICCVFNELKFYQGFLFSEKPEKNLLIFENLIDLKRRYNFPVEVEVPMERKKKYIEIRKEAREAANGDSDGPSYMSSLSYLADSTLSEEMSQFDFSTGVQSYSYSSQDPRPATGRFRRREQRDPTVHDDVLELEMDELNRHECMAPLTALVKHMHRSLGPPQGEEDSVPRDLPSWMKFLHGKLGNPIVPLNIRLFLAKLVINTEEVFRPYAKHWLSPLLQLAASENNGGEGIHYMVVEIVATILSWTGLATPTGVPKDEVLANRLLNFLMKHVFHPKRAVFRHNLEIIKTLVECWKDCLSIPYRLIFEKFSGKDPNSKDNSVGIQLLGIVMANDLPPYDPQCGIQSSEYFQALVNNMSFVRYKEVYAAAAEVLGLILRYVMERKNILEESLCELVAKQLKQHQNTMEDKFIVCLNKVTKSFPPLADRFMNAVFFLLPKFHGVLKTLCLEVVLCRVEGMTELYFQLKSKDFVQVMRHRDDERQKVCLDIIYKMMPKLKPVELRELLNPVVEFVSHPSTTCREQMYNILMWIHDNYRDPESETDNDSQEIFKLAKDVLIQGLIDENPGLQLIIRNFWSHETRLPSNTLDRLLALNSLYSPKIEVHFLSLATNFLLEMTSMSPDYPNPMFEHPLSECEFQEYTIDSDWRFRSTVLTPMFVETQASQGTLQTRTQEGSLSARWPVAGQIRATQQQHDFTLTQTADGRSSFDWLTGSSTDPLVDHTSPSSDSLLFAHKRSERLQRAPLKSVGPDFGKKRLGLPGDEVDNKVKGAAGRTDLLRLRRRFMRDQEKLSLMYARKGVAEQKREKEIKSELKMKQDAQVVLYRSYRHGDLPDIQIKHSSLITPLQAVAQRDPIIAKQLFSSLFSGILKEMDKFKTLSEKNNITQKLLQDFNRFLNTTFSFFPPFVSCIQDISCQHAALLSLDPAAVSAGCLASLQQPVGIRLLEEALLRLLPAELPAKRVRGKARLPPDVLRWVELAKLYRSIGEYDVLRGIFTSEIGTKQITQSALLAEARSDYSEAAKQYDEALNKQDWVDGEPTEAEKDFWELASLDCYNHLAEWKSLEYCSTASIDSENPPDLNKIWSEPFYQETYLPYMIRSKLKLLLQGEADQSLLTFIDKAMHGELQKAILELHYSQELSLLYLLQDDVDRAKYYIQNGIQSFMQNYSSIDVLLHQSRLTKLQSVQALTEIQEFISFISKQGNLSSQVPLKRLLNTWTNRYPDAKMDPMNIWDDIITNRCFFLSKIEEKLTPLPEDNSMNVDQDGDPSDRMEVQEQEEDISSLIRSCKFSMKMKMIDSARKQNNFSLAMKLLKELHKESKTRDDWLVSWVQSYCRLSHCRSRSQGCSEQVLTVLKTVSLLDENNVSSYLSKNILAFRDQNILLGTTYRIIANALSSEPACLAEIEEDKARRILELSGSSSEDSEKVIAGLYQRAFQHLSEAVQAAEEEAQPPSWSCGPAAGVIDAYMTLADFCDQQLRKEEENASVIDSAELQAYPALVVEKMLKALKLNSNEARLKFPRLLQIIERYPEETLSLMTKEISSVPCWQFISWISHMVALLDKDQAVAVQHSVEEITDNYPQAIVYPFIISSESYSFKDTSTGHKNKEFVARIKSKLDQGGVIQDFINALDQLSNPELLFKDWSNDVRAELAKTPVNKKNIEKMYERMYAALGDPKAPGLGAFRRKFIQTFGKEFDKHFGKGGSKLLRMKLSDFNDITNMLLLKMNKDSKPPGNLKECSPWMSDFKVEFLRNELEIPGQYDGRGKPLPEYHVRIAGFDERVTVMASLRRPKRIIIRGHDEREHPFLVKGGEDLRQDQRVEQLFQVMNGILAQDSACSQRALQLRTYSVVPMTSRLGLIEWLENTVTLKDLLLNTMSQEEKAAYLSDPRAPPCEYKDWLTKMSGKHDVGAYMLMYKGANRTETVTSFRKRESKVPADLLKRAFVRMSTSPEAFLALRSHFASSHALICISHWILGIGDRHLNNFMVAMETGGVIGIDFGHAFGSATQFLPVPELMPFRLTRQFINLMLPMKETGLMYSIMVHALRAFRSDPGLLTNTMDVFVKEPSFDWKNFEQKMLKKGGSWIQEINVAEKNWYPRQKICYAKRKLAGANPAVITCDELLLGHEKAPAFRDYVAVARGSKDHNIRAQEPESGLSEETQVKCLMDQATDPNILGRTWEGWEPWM

[13] = target: Serine-protein kinase ATM (Homo sapiens, UniProt Q13315); experiment: Inhibition of ATM (unknown origin)
[14] = target: Serine/threonine-protein kinase mTOR (Homo sapiens, UniProt P42345); experiment: Inhibition of mTOR (unknown origin)
[15] = Inhibition of PI3K (unknown origin); parameters: species or system Homo sapiens
Homo sapiens [16] = experiment: In vivo inhibition of PARP activity in tumor tissue of advanced breast cancer patient with BRCA1/2 mutations at 400 mg dosed twice daily; format: functional
Homo sapiens [17] = experiment: Toxicity in advanced breast cancer patient with BRCA1/2 mutations assessed as maximum tolerated dose for twice daily dosing; format: organism-based; settings: in vivo
[18] = Terminal half life in advanced breast cancer patient with BRCA1/2 mutations at 400 mg dosed twice daily; format: ADME, organism-based; settings: human, in vivo, read-out: beta t1/2 (converted)
[19] = Cmax in advanced breast cancer patient with BRCA1/2 mutations at 400 mg dosed twice daily; format: ADME, organism-based; parameters: dose 400 mg; settings: human, in vivo
Homo sapiens [20] = experiment: In vivo inhibition of PARP activity in peripheral blood mononuclear cells of advanced breast cancer patient with BRCA1/2 mutations at 400 mg dosed twice daily; format: functional

Cc1cnc(NC(=O)Nc2cc(Br)c(C)cc2OC[C@@H]2CNCCO2)cn1 [RABUSERTIB]
MTD (Homo sapiens [1]): 150 mg/m2

Cn1cc(C2C=NN3C(N)=C(Br)C([C@@H]4CCCNC4)=NC23)cn1 (stereo not given in full)
MTD (Homo sapiens [2]): 56 mg/m2

NC(=O)c1cccc2cn(-c3ccc([C@@H]4CCCNC4)cc3)nc12 [NIRAPARIB]
Cmax [3]: 2 µM | half-life [4]: 36.4 h

C[C@]1(c2nc3c(C(N)=O)cccc3[nH]2)CCCN1 [VELIPARIB]
MTD (Homo sapiens [5]): 60 mg | inhibition (INH) (Homo sapiens [6]): 50% | half-life [7]: 5 h | MTD (Homo sapiens [8]): 60 mg | inhibition (INH) (Homo sapiens [9]): 80%

CNCc1ccc(-c2[nH]c3cc(F)cc4c3c2CCNC4=O)cc1 [RUCAPARIB]
inhibition in vivo at 12 mg/m2 (Homo sapiens [10]): 74%

CC(C)(C#N)c1ccc(N2C(=O)OCc3cnc4ccc(-c5cnc6ccccc6c5)cc4c32)cc1
IC50 [11]: 0.014 µM | IC50 [12]: > 0.036 µM | IC50 [13]: > 0.036 µM | IC50 [14]: 0.0006 µM | IC50 [15]: > 0.036 µM

O=C(c1cc(Cc2n[nH]c(=O)c3ccccc23)ccc1F)N1CCN(C(=O)C2CC2)CC1 [OLAPARIB]
inhibition (INH) (Homo sapiens [16]): 70% | MTD (Homo sapiens [17]): 400 mg | half-life [18]: 7 h | Cmax [19]: 2.6 µg/mL | inhibition (INH) (Homo sapiens [20]): 50%

From ChEMBL document CHEMBL3352686, “Development of synthetic lethality anticancer therapeutics” (J Med Chem, 2014)
